For 23 compounds, IC50 results are on record in patent US7205295B2, “Benzoxazin-3-ones and derivatives thereof as therapeutic agents” (Warner-Lambert Company LLC, priority 2002, dated 2007).

Structures are written as SMILES.

In this assay the target is T1, PI3Kγ (p101/p110γ protein) (Homo sapiens, UniProt P48736).
T1 construct: HA; made in house; host or cells: Spodoptera frugiperda (Sf9) cells, baculovirus co-infection
In words: PI3Kγ In Vitro Kinase Assay. In kind it is biochemical. The conditions noted are these: purified recombinant p101/p110γ with G protein β1/γ2 subunits; 20 μM ATP, 25 μM PIP2; 20 minutes at room temperature. In outline:
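Sf9-expressed, purified human p101/p110γ (2.7 nM) was activated by Gβ1/γ2 (57.7 nM) and reacted with 20 μM ATP plus [γ-32P]ATP on PIP2 (25 μM)/PE (300 μM) micelles with 10 mM MgCl2 in HEPES buffer. Reactions ran 20 min at room temperature. Filter-captured radiolabeled PIP3 was counted by scintillation.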

T1 sequence (P48736 whole entry, species assumed): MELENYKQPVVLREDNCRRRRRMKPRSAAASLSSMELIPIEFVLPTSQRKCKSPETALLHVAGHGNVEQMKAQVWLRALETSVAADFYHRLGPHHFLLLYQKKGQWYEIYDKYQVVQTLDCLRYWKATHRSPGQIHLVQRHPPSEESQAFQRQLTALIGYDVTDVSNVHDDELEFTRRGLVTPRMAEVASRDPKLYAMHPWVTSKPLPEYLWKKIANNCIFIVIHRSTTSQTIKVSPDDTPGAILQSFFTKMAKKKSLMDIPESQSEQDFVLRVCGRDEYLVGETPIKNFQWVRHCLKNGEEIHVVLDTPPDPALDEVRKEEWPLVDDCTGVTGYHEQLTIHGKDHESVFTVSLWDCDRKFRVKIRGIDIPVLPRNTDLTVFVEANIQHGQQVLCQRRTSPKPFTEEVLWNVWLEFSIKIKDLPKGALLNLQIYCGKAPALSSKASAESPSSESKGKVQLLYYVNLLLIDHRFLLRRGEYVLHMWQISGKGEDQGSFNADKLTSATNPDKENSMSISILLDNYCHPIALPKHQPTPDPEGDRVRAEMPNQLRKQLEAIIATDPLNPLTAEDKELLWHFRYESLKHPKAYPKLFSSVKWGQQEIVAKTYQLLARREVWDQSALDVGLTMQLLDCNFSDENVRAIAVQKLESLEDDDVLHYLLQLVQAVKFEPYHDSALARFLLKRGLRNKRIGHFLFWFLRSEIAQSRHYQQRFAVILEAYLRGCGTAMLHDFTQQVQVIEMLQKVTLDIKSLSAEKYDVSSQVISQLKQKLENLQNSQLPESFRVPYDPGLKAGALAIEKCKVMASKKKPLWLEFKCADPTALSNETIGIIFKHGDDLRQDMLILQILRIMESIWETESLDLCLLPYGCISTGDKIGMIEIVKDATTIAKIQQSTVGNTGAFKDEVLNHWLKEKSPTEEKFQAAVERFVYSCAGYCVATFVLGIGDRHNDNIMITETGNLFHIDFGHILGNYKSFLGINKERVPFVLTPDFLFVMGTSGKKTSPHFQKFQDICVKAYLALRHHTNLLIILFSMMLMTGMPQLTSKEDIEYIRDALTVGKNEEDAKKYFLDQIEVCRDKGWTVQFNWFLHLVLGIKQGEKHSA
T1 sequence (Q8WYR1 whole entry partner, species assumed): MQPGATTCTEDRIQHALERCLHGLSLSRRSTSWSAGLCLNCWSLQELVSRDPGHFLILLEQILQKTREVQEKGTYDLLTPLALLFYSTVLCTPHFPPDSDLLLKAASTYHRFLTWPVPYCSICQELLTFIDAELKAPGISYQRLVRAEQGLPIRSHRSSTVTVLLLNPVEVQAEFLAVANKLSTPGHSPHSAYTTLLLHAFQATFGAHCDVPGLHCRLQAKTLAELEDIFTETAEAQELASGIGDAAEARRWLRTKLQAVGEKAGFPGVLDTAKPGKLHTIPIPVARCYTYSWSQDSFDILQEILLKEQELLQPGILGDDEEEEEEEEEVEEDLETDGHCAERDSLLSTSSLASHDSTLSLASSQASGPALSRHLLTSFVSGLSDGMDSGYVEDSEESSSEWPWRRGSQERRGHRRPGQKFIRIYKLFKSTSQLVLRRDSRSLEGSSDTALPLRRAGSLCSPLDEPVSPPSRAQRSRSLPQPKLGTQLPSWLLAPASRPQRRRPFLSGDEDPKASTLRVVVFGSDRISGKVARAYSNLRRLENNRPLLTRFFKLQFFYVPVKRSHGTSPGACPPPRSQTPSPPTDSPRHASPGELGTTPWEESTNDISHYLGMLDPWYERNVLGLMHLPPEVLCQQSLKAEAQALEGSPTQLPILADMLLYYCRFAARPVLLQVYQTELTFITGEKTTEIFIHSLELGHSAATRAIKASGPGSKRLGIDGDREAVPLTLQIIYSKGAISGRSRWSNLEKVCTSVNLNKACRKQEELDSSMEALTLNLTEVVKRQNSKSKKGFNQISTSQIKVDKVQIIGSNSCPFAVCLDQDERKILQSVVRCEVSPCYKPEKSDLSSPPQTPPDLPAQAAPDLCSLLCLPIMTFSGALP

A word on the IC50: it is the point on the concentration scale where inhibition reaches its midpoint. Consider `COc1cc(CN2C(=O)COc3ccc(C=C4SC(=S)NC4=O)cc32)cc(OC)n1` [Example 206, 4-(2,6-Dimethoxy-pyridin-4-ylmethyl)-6-(4-oxo-2-thioxo-thiazolidin-5-ylidenemethyl)-4H-benzo[1,4]oxazine-3-one], for which the IC50 is 60 nM. On to `CC(C)c1cc(CN2C(=O)COc3ccc(C=C4SC(=S)NC4=O)cc32)cc(C(C)C)c1` [Example 210, 4-(3,5-Diisopropyl-benzyl)-6-(4-oxo-2-thioxo-thiazolidin-5-ylidenemethyl)-4H-benzo[1,4]oxazin-3-one], for which the 50% inhibitory concentration (IC50) stood at 45 nM. The figure for `Cc1cc(CN2C(=O)COc3ccc(C=C4SC(=S)NC4=O)cc32)cc(C(C)(C)C)c1` [Example 211, 4-(3-tert-Butyl-5-methyl-benzyl)-6-(4-oxo-2-thioxo-thiazolidin-5-ylidenemethyl)-4H-1,4-benzoxazin-3-one] is 17 nM; for `CC(C)(C)c1cc(CO)cc(CN2C(=O)COc3ccc(C=C4SC(=S)NC4=O)cc32)c1` [Example 212, 4-(3-tert-Butyl-5-hydroxymethyl-benzyl)-6-(4-oxo-2-thioxo-thiazolidin-5-ylidenemethyl)-4H-1,4-benzoxazin-3-one] it is 22 nM. The figure for `CC1CC(C)CN(C(=O)CN2C(=O)COc3ccc(C=C4SC(=S)NC4=O)cc32)C1` (centres unmarked) [Example 213, 4-[2-(3,5-Dimethyl-piperidin-1-yl)-2-oxo-ethyl]-6-(4-oxo-2-thioxo-thiazolidin-5-ylidenemethyl)-4H-1,4-benzoxazin-3-one] is 2100 nM. The figure for `CC(C)(C)OC(=O)N1CCN(C(=O)CN2C(=O)COc3ccc(C=C4SC(=S)NC4=O)cc32)CC1` [Example 214, 4-{2-[3-Oxo-6-(4-oxo-2-thioxo-thiazolidin-5-ylidenemethyl)-2,3-dihydro-1,4-benzoxazin-4-yl]-acetyl}-piperazine-1-carboxylic acid tert-butyl ester] is 3180 nM; for `O=C1NC(=S)SC1=Cc1ccc2c(c1)N(CC(=O)N1CCNCC1)C(=O)CO2` [Example 215, 4-(2-Oxo-2-piperazin-1-yl-ethyl)-6-(4-oxo-2-thioxo-thiazolidin-5-ylidenemethyl)-4H-1,4-benzoxazin-3-one] it is 1080 nM; for `CC(C)(C)c1cc(CN2C(=O)COc3ccc(C=C4SC(=S)NC4=O)cc32)cc(C(N)=O)c1` [Example 216, 3-tert-Butyl-5-[3-oxo-6-(4-oxo-2-thioxo-thiazolidin-5-ylidenemethyl)-2,3-dihydro-1,4-benzoxazin-4-ylmethyl]-benzamide] it is 26 nM. Consider `O=C1NC(=S)SC1=Cc1ccc2c(c1)N(Cc1cc(Br)cc(Br)c1)C(=O)CO2` [Example 217, 4-(3,5-Dibromo-benzyl)-6-(4-oxo-2-thioxo-thiazolidin-5-ylidenemethyl)-4H-1,4-benzoxazin-3-one], for which the IC50 stood at 42 nM. In the case of `Cc1cc(C)cc(C(C)N2C(=O)COc3ccc(C=C4SC(=S)NC4=O)cc32)c1` (centres unmarked) [Example 218, 4-[1-(3,5-Dimethyl-phenyl)-ethyl]-6-(4-oxo-2-thioxo-thiazolidin-5-ylidenemethyl)-4H-1,4-benzoxazin-3-one] it was 55 nM; in that of `CC(C)(C)c1cc(CN2C(=O)COc3ccc(C=C4SC(=O)NC4=O)cc32)cc(C(C)(C)C)c1O` [Example 219, 5-[4-(3,5-Di-tert-butyl-4-hydroxy-benzyl)-3-oxo-3,4-dihydro-2H-1,4-benzoxazin-6-ylmethylene]-thiazolidine-2,4-dione], 6 nM; in that of `CC(C)(C)c1cc(CN2C(=O)COc3c(F)cc(C=C4SC(=S)NC4=O)cc32)cc(C(C)(C)C)n1` [Example 220, 4-(2,6-Di-tert-butyl-pyridin-4-ylmethyl)-8-fluoro-6-(4-oxo-2-thioxo-thiazolidin-5-ylidenemethyl)-4H-1,4-benzoxazin-3-one], 495 nM. The figure for `Cc1cc(C=C2SC(=S)NC2=O)cc2c1OCC(=O)N2Cc1cc(C(C)(C)C)nc(C(C)(C)C)c1` [Example 221, 4-(2,6-Di-tert-butyl-pyridin-4-ylmethyl)-8-methyl-6-(4-oxo-2-thioxo-thiazolidin-5-ylidenemethyl)-4H-1,4-benzoxazin-3-one] is 895 nM; for `CN1CCN(Cc2cc(CN3C(=O)COc4ccc(C=C5SC(=S)NC5=O)cc43)cc(C(C)(C)C)c2)CC1` [Example 222, 4-[3-tert-Butyl-5-(4-methyl-piperazin-1-ylmethyl)-benzyl]-6-(4-oxo-2-thioxo-thiazolidin-5-ylidenemethyl)-4H-1,4-benzoxazin-3-one] it is 6 nM. In the case of `CC1Oc2ccc(C=C3SC(=S)NC3=O)cc2N(Cc2ccc(CN3CCN(C)CC3)cc2)C1=O` (centres unmarked) [Example 223, 2-Methyl-4-[4-(4-methyl-piperazin-1-ylmethyl)-benzyl]-6-(4-oxo-2-thioxo-thiazolidin-5-ylidenemethyl)-4H-1,4-benzoxazin-3-one] it was 295 nM; in that of `Cc1cc(C=C2SC(=O)NC2=O)cc2c1OCC(=O)N2Cc1cc(C(C)(C)C)nc(C(C)(C)C)c1` [Example 224, 5-[4-(2,6-Di-tert-butyl-pyridin-4-ylmethyl)-8-methyl-3-oxo-3,4-dihydro-2H-1,4-benzoxazin-6-ylmethylene]-thiazolidine-2,4-dione], 255 nM; in that of `O=C1NC(=S)SC1=Cc1ccc2c(c1)N(Cc1cc(Cl)nc(Cl)c1)C(=O)CO2` [Example 225, 4-(2,6-Dichloro-pyridin-4-ylmethyl)-6-(4-oxo-2-thioxo-thiazolidin-5-ylidenemethyl)-4H-1,4-benzoxazin-3-one], 49 nM. In the case of `O=C1NC(=O)C(=Cc2ccc3c(c2)N(Cc2cc(Cl)nc(Cl)c2)C(=O)CO3)S1` [Example 226, 5-[4-(2,6-Dichloro-pyridin-4-ylmethyl)-3-oxo-3,4-dihydro-2H-1,4-benzoxazin-6-ylmethylene]-thiazolidine-2,4-dione], the IC50 turned out to be 34200 nM. The figure for `O=C1NC(=O)C(=Cc2ccc3c(c2)N(Cc2ccncc2)C(=O)CO3)S1` [Example 227, 5-(3-Oxo-4-pyridin-4-ylmethyl-3,4-dihydro-2H-1,4-benzoxazin-6-ylmethylene)-thiazolidine-2,4-dione] is 48 nM; for `CN1CCN(Cc2ccc(CN3C(=O)COc4ccc(C=C5SC(=O)NC5=O)cc43)cc2)CC1` [Example 228, 5-{4-[4-(4-Methyl-piperazin-1-ylmethyl)-benzyl]-3-oxo-3,4-dihydro-2H-1,4-benzoxazin-6-ylmethylene}-thiazolidine-2,4-dione] it is 3 nM. The figure for `Cc1cc(CN2C(=O)COc3ccc(C=C4SC(=S)NC4=O)cc32)cc(C)n1` [Example 229, 4-(2,6-Dimethyl-pyridin-4-ylmethyl)-6-(4-oxo-2-thioxo-thiazolidin-5-ylidenemethyl)-4H-1,4-benzoxazin-3-one] is 20 nM; for `Cc1cc(CN2C(=O)COc3ccc(C=C4SC(=O)NC4=O)cc32)cc(C)n1` [Example 230, 5-[4-(2,6-Dimethyl-pyridin-4-ylmethyl)-3-oxo-3,4-dihydro-2H-1,4-benzoxazin-6-ylmethylene]-thiazolidine-2,4-dione] it is 43 nM. In the case of `COC(=O)c1nc(CN2C(=O)COc3ccc(C=C4SC(=S)NC4=O)cc32)ncc1OC` [Example 231, 5-Methoxy-2-[3-oxo-6-(4-oxo-2-thioxo-thiazolidin-5-ylidenemethyl)-2,3-dihydro-1,4-benzoxazin-4-ylmethyl]-pyrimidine-4-carboxylic acid methyl ester], the IC50 was found to be 50 nM.
